Measured values reported in PMC6792352, “Limited Chemical Structural Diversity Found to Modulate Thyroid Hormone Receptor in the Tox21 Chemical Library” (Environmental Health Perspectives, 2019).
Structures can show the parent of a compound that is named as a salt.

Assay: in vitro
Details: rat, gh3-tre-luc cells, AC50 (uM) modified / 1000

SMILES	CC50 at 24 h [µM]
O=S(=O)(O)c1ccc(N=Nc2c(O)ccc3ccccc23)cc1 [C.I. Acid Orange 7]	44.3
NCCCN1CCN(CCCN)CC1 [1,4-bis(3-Aminopropyl)piperazine]	> 90
CC1(C)C2(Cl)C(Cl)C(Cl)C(Cl)(C(Cl)Cl)C1(Cl)C2Cl (stereo not shown) [Strobane]	21
c1ccc2c(c1)ccc1c3ccccc3ccc21 [Chrysene]	> 40
CCCCCCCCCC(=O)OC [Methyl decanoate]	> 90
CC1(C)[C@@H]2CC[C@@]1(C)[C@H](OC(=O)CSC#N)C2 [Thanite]	> 50
CCCCCCCCCCCCCCCC(=O)OCC(COC(=O)CCCCCCCCCCCCCCC)OC(=O)CCCCCCCCCCCCCCC [Tripalmitin]	> 50
O=C(c1ccc(O)c(O)c1)c1ccc(O)cc1O [2,3',4,4'-Tetrahydroxybenzophenone]	49.5
CC(N)CCCC(C)(C)O (stereo not shown) [Heptaminol hydrochloride]	> 50
Nc1ncnc2c1ncn2CCOCP(=O)(O)O [Adefovir]	> 50
CO[C@@]1(NC(=O)C2SC(=C(C(N)=O)C(=O)O)S2)C(=O)N2C(C(=O)O)=C(CSc3nnnn3C)CS[C@@H]21 (stereo partly shown) [Cefotetan]	> 20
O=C(O)COc1ccc(Cl)cc1 [4-Chlorophenoxyacetic acid]	> 90
Cc1ccc(S(=O)(=O)O)cc1C [Sodium xylenesulfonate]	> 90
OCC(O)CS (stereo not shown) [1-Thioglycerol]	> 90
Nc1ccc(Cl)cc1[N+](=O)[O-] [4-Chloro-2-nitroaniline]	> 90
CCCCCOC(=O)CCC [Pentyl butyrate]	> 90
CC(=O)c1ccc(OCC(=O)N2CCCCC2)cc1 [4'-Piperidinylcarbonylmethoxyacetophenone]	> 50
CCCOC(=O)c1ccccc1 [Propyl benzoate]	> 90
CC(=O)CC(C)(C)O [Diacetone alcohol]	> 90
O=C(Cl)c1cccc(C(=O)Cl)c1 [1,3-Benzenedicarbonyl dichloride]	> 90

SMILES	CC50 at 24 h [µM]
Cc1ccc(S(=O)(=O)NC(=O)NN2CC3CCC[C@@H]3C2)cc1 (stereo in doubt) [Gliclazide]	> 20
CC(=O)O[C@]1(C(C)=O)CC[C@H]2[C@@H]3C[C@H](C)C4=CC(=O)CC[C@]4(C)[C@H]3CC[C@@]21C [Medroxyprogesterone acetate]	> 90
COC(=O)[C@H]1[C@H]2C[C@H]3c4[nH]c5ccccc5c4CCN3C[C@H]2CC[C@@H]1O [Rauwolscine]	> 50
CC1(C)C2CC[C@]3(C)[C@H](C(=O)C=C4[C@@H]5C[C@@](C)(C(=O)O)CC[C@]5(C)CC[C@]43C)[C@@]2(C)CC[C@@H]1O[C@H]1O[C@H](C(=O)O)[C@@H](O)[C@H](O)[C@H]1O[C@@H]1O[C@H](C(=O)O)[C@@H](O)[C@H](O)[C@H]1O (stereo partly shown) [Glycyrrhizic acid, monosodium salt]	> 50
C=C(C)C(=O)OCC(C)C [Isobutyl methacrylate]	> 90
CCCc1ccc(O)c(OC)c1 [2-Methoxy-4-propylphenol]	> 90
CC(C)CO [2-Methyl-1-propanol]	> 90
Cc1c(COC(=O)[C@@H]2[C@H](/C=C(\Cl)C(F)(F)F)C2(C)C)cccc1-c1ccccc1 (racemic) [Bifenthrin]	> 90
CCC(C)(C)C [2,2-Dimethylbutane]	> 100
CC1(C)S[C@@H]2[C@H](NC(=O)C(C(=O)Oc3ccc4c(c3)CCC4)c3ccccc3)C(=O)N2[C@H]1C(=O)O (stereo partly shown) [Carbenicillin indanyl]	> 50
Brc1cc(Oc2cc(Br)c(Br)c(Br)c2Br)c(Br)c(Br)c1Br [Octabromodiphenyl ether]	> 90
CS(=O)(=O)c1ccc(C2=C(c3ccccc3)C(=O)OC2)cc1 [Rofecoxib]	> 50
CCCCCCCCC(=O)Cl [Nonanoyl chloride]	> 90
NCC[C@H](O)C(=O)N[C@@H]1C[C@H](N)[C@@H](O[C@H]2O[C@H](CN)[C@@H](O)[C@H](O)[C@H]2O)[C@H](O)[C@H]1O[C@H]1O[C@H](CO)[C@@H](O)[C@H](N)[C@H]1O [Amikacin]	> 50
CC(C)=CCC1=C(O)C(=O)c2ccccc2C1=O [Lapachol]	10.7
CC(=O)Nc1ccn(C2COC(COC(=O)c3ccccc3)O2)c(=O)n1 (stereo not shown) [{4-[4-(Acetylamino)-2-oxopyrimidin-1(2H)-yl]-1,3-dioxolan-2-yl}methyl benzoate]	> 50
CC(C)COC(=O)c1ccccc1O [Isobutyl salicylate]	> 90
COc1ccc(Cl)cc1C(=O)NCCc1ccc(S(=O)(=O)NC(=O)NC2CCCCC2)cc1 [Glybenclamide]	> 90
CNCc1ccccc1 [N-Methylbenzylamine hydrochloride]	> 50
CN1C2=CC(=O)/C(=N\NC(N)=O)C=C2CC1S(=O)(=O)O (stereo not shown) [Carbazochrome sodium sulfonate]	> 50

SMILES	CC50 at 24 h [µM]
CNC(C)C(O)c1ccc(O)cc1 (stereo not shown) [1-(4-Hydroxyphenyl)-2-methyl-2-methylaminoethanol hydrochloride]	> 50
O=C=NC1CCC(CC2CCC(N=C=O)CC2)CC1 (stereo not shown) [1,1-Methylenebis(4-isocyanatocyclohexane)]	> 90
CCCCC(CC)CN1C(=O)[C@@H]2[C@H](C1=O)[C@@H]1C=C[C@H]2C1 (stereo partly shown) [Octylbicycloheptenedicarboximide]	53.7
CCCCCCCCCCOC(=O)c1ccccc1C(=O)OCCCCCCCCCC [Didecyl phthalate]	> 90
O=c1[nH]ncc2ccccc12 [1(2H)-Phthalazinone]	> 90
COCCOC[C@H](CC1(C(=O)N[C@H]2CC[C@@H](C(=O)O)CC2)CCCC1)C(=O)Oc1ccc2c(c1)CCC2 [Candoxatril]	> 90
CCN(Cc1cccc(S(=O)(=O)O)c1)c1ccc(C(=C2C=CC(=[N+](CC)Cc3cccc(S(=O)(=O)[O-])c3)C=C2)c2ccccc2)cc1 [FD&C Green No. 1]	> 70
CN1CCOC(c2ccccc2)c2ccccc2C1 (stereo not shown) [Nefopam hydrochloride]	> 20
Nc1ccc(Oc2ccc(N)cc2)cc1 [4,4'-Oxydianiline]	> 90
CC(C)(C)NCC(O)c1ccccc1Cl (stereo not shown) [Tulobuterol hydrochloride]	> 50
CC1=C(C(=O)O)N2C(=O)[C@@H](NC(=O)[C@H](N)c3ccc(O)cc3)[C@H]2SC1 [Cefadroxil]	> 20
CCCCCCCC/C=C\CCCCCCCC(=O)NCc1ccc(O)c(OC)c1 [Olvanil]	8.65
CCC/C(=N\OCC)C1=C(O)CC(CC(C)SCC)CC1=O (stereo not shown) [Sethoxydim]	> 90
CCCCCCC(O)CCCCCCCCCCC(=O)O (stereo not shown) [12-Hydroxyoctadecanoic acid]	> 90
CCCCCCC=O [Heptanal]	> 90
CC(C)Oc1ccc2c(=O)c(-c3ccccc3)coc2c1 [Ipriflavone]	> 50
O=C(OCC1CCC2OC2C1)C1CCC2OC2C1 (stereo not shown) [ECC]	> 100
CCCCCc1cccc(=O)o1 [6-Pentyl-2H-pyran-2-one]	> 90
CCOc1cccc(C2(N3CCN(c4ccccc4)CC3)CCC(C)CC2)c1 (stereo not shown) [CP-422935]	> 90

Same assay, conditions: rat, gh3-tre-luc cells, AC50 (uM) modified / 1000, Tox21_110001=Tox21_111076; viability, 1 nM T3 present, 24 h

SMILES	CC50 at 24 h [µM]
Clc1ccc(C(c2ccc(Cl)cc2)C(Cl)(Cl)Cl)cc1 [p,p'-DDT]	19.5

Same assay, conditions: rat, gh3-tre-luc cells, AC50 (uM) modified / 1000, Tox21_110001=Tox21_111921; viability, 1 nM T3 present, 24 h

SMILES	CC50 at 24 h [µM]
CCCC(C)(COC(N)=O)COC(=O)NC1CC1 (stereo not shown) [Lorbamate]	> 50

Same assay, conditions: rat, gh3-tre-luc cells, AC50 (uM) modified / 1000, Tox21_110001=Tox21_200910; viability, 1 nM T3 present, 24 h

SMILES	CC50 at 24 h [µM]
Oc1c(Cl)c(Cl)cc(Cl)c1Cl [2,3,5,6-Tetrachlorophenol]	65.8

Same assay, conditions: rat, gh3-tre-luc cells, AC50 (uM) modified / 1000, Tox21_110001=Tox21_201495; viability, 1 nM T3 present, 24 h

SMILES	CC50 at 24 h [µM]
Clc1ccc(C(c2ccc(Cl)cc2)C(Cl)(Cl)Cl)cc1 [p,p'-DDT]	44.8

Same assay, conditions: rat, gh3-tre-luc cells, AC50 (uM) modified / 1000, Tox21_110001=Tox21_201726; viability, 1 nM T3 present, 24 h

SMILES	CC50 at 24 h [µM]
ClCCBr [1-Chloro-2-bromoethane]	> 90

Same assay, conditions: rat, gh3-tre-luc cells, AC50 (uM) modified / 1000, Tox21_110001=Tox21_201753; viability, 1 nM T3 present, 24 h

SMILES	CC50 at 24 h [µM]
CCOC(=O)C(O)(c1ccc(Cl)cc1)c1ccc(Cl)cc1 [Chlorobenzilate]	58.2

Same assay, conditions: rat, gh3-tre-luc cells, AC50 (uM) modified / 1000, Tox21_110001=Tox21_202415; viability, 1 nM T3 present, 24 h

SMILES	CC50 at 24 h [µM]
Oc1ccccc1-c1ccccc1 [2-Phenylphenol]	> 90

Same assay, conditions: rat, gh3-tre-luc cells, AC50 (uM) modified / 1000, Tox21_110001=Tox21_202795; viability, 1 nM T3 present, 24 h

SMILES	CC50 at 24 h [µM]
O=C(CCl)C(Cl)Cl [1,1,3-Trichloropropanone]	13

Same assay, conditions: rat, gh3-tre-luc cells, AC50 (uM) modified / 1000, Tox21_110001=Tox21_300067; viability, 1 nM T3 present, 24 h

SMILES	CC50 at 24 h [µM]
Clc1ccc(C(c2ccc(Cl)cc2)C(Cl)(Cl)Cl)cc1 [p,p'-DDT]	28.7

Same assay, conditions: rat, gh3-tre-luc cells, AC50 (uM) modified / 1000, Tox21_110001=Tox21_300594; viability, 1 nM T3 present, 24 h

SMILES	CC50 at 24 h [µM]
CCOC(=O)C(O)(c1ccc(Cl)cc1)c1ccc(Cl)cc1 [Chlorobenzilate]	54.6

Same assay, conditions: rat, gh3-tre-luc cells, AC50 (uM) modified / 1000, Tox21_110001=Tox21_300736; viability, 1 nM T3 present, 24 h

SMILES	CC50 at 24 h [µM]
CNC(=S)S [Metam-sodium hydrate]	> 90

Same assay, conditions: rat, gh3-tre-luc cells, AC50 (uM) modified / 1000, Tox21_110001=Tox21_301323; viability, 1 nM T3 present, 24 h

SMILES	CC50 at 24 h [µM]
CC(C)c1ccc(O)cc1 [4-Isopropylphenol]	> 90

Same assay, conditions: rat, gh3-tre-luc cells, AC50 (uM) modified / 1000, Tox21_110001=Tox21_301355; viability, 1 nM T3 present, 24 h

SMILES	CC50 at 24 h [µM]
CCOP(=O)(Sc1ccccc1)Sc1ccccc1 [Edifenphos]	> 90

Same assay, conditions: rat, gh3-tre-luc cells, AC50 (uM) modified / 1000, Tox21_110001=Tox21_301840; viability, 1 nM T3 present, 24 h

SMILES	CC50 at 24 h [µM]
CC1C(=O)C[C@]2(C(C)C)C[C@H]12 (single isomer, unassigned; (-)) [(-)-alpha,beta-Thujone]	> 80
